In brackets after ≈: the same amount, converted by molar mass. Activity calls are given as the source filed them. The calls are words filed in the database; no cut-off is given here.
Experiments:
Type in all cases: functional
Listeria monocytogenes [1] = assay: Antibacterial activity against Listeria monocytogenes by CLSI M100-S18 method
[2] = Antibacterial activity against Lancefield Streptococcus sp. 'group C' by CLSI M100-S18 method
Streptococcus sp. = assay: Antibacterial activity against Lancefield Streptococcus sp. group F by CLSI M100-S18 method
[3] = Antibacterial activity against Lancefield Streptococcus sp. 'group G' by CLSI M100-S18 method
Streptococcus pneumoniae [4] = assay: Antibacterial activity against levofloxacin-susceptible Streptococcus pneumoniae by CLSI M100-S18 method
Streptococcus pneumoniae [5] = assay: Antibacterial activity against non-levofloxacin susceptible Streptococcus pneumoniae by CLSI M100-S18 method
Streptococcus pyogenes = assay: Antibacterial activity against Streptococcus pyogenes by CLSI M100-S18 method
Streptococcus anginosus [6] = assay: Antibacterial activity against Streptococcus anginosus by CLSI M100-S18 method
Streptococcus equinus [7] = assay: Antibacterial activity against Streptococcus bovis by CLSI M100-S18 method
[8] = tested on: Streptococcus constellatus; assay: Antibacterial activity against Streptococcus constellatus by CLSI M100-S18 method
[9] = tested on: Streptococcus intermedius; assay: Antibacterial activity against Streptococcus intermedius by CLSI M100-S18 method
Streptococcus mitis [10] = assay: Antibacterial activity against Streptococcus mitis by CLSI M100-S18 method
Streptococcus oralis [11] = assay: Antibacterial activity against Streptococcus oralis by CLSI M100-S18 method
Streptococcus salivarius [12] = assay: Antibacterial activity against Streptococcus salivarius by CLSI M100-S18 method
Streptococcus sanguinis [13] = assay: Antibacterial activity against Streptococcus sanguinis by CLSI M100-S18 method
Haemophilus influenzae [14] = assay: Antibacterial activity against ciprofloxacin-susceptible Haemophilus influenzae by CLSI M7-A7 method
Haemophilus influenzae [15] = assay: Antibacterial activity against non-ciprofloxacin-susceptible Haemophilus influenzae by CLSI M7-A7 method
Neisseria meningitidis [16] = assay: Antibacterial activity against Neisseria meningitidis by CLSI M7-A7 method
Listeria monocytogenes [17] = assay: Antibacterial activity against Listeria monocytogenes assessed as percent susceptible isolates by CLSI M100-S18 method
Streptococcus pneumoniae [18] = assay: Antibacterial activity against levofloxacin susceptible Streptococcus pneumoniae assessed as percent susceptible isolates by CLSI M100-S18 method
Streptococcus pneumoniae [19] = assay: Antibacterial activity against non-levofloxacin susceptible Streptococcus pneumoniae assessed as percent susceptible isolates by CLSI M100-S18 method
Streptococcus anginosus [20] = assay: Antibacterial activity against Streptococcus anginosus assessed as percent susceptible isolates by CLSI M100-S18 method
Streptococcus equinus [21] = assay: Antibacterial activity against Streptococcus bovis assessed as percent susceptible isolates by CLSI M100-S18 method
[22] = tested on: Streptococcus constellatus; assay: Antibacterial activity against Streptococcus constellatus assessed as percent susceptible isolates by CLSI M100-S18 method
[23] = tested on: Streptococcus intermedius; assay: Antibacterial activity against Streptococcus intermedius assessed as percent susceptible isolates by CLSI M100-S18 method
Streptococcus mitis [24] = assay: Antibacterial activity against Streptococcus mitis assessed as percent susceptible isolates by CLSI M100-S18 method
Streptococcus oralis [25] = assay: Antibacterial activity against Streptococcus oralis assessed as percent susceptible isolates by CLSI M100-S18 method
Streptococcus salivarius [26] = assay: Antibacterial activity against Streptococcus salivarius assessed as percent susceptible isolates by CLSI M100-S18 method
Streptococcus sanguinis [27] = assay: Antibacterial activity against Streptococcus sanguinis assessed as percent susceptible isolates by CLSI M100-S18 method
Haemophilus influenzae [28] = assay: Antibacterial activity against ciprofloxacin-susceptible Haemophilus influenzae assessed as percent susceptible isolates by CLSI M7-A7 method
Haemophilus influenzae [29] = assay: Antibacterial activity against non-ciprofloxacin-susceptible Haemophilus influenzae assessed as percent susceptible isolates by CLSI M7-A7 method
Neisseria meningitidis [30] = assay: Antibacterial activity against Neisseria meningitidis assessed as percent susceptible isolates by CLSI M7-A7 method

CC1(C)S[C@@H]2[C@H](NC(=O)Cc3ccccc3)C(=O)N2[C@H]1C(=O)O [PENICILLIN G]
MIC50 (Listeria monocytogenes [1]): 0.25 µg/mL (≈ 0.748 µM) | MIC90 (Listeria monocytogenes [1]): 0.25 µg/mL (≈ 0.748 µM) | MIC50 [2]: 8 µg/mL (≈ 23.9 µM) | MIC90 [2]: 16 µg/mL (≈ 47.8 µM) | MIC50 (Streptococcus sp.): 8 µg/mL (≈ 23.9 µM) | MIC90 (Streptococcus sp.): 16 µg/mL (≈ 47.8 µM) | MIC50 [3]: 8 µg/mL (≈ 23.9 µM) | MIC90 [3]: 16 µg/mL (≈ 47.8 µM) | MIC (Streptococcus pneumoniae [4]): ≤ 0.06 µg/mL | MIC50 (Streptococcus pneumoniae [4]): ≤ 0.06 µg/mL | MIC90 (Streptococcus pneumoniae [4]): 0.5 µg/mL (≈ 1.5 µM) | MIC50 (Streptococcus pneumoniae [5]): 0.12 µg/mL (≈ 0.359 µM) | MIC90 (Streptococcus pneumoniae [5]): 2 µg/mL (≈ 5.98 µM) | MIC (Streptococcus pyogenes): ≤ 0.015 µg/mL | MIC50 (Streptococcus pyogenes): ≤ 0.015 µg/mL | MIC90 (Streptococcus pyogenes): ≤ 0.015 µg/mL | MIC50 (Streptococcus anginosus [6]): 0.06 µg/mL (≈ 0.179 µM) | MIC90 (Streptococcus anginosus [6]): 1 µg/mL (≈ 2.99 µM) | MIC50 (Streptococcus equinus [7]): 16 µg/mL (≈ 47.8 µM) | MIC90 (Streptococcus equinus [7]): 32 µg/mL (≈ 95.7 µM) | MIC50 [8]: 16 µg/mL (≈ 47.8 µM) | MIC90 [8]: 32 µg/mL (≈ 95.7 µM) | MIC50 [9]: 16 µg/mL (≈ 47.8 µM) | MIC90 [9]: 32 µg/mL (≈ 95.7 µM) | MIC50 (Streptococcus mitis [10]): 16 µg/mL (≈ 47.8 µM) | MIC90 (Streptococcus mitis [10]): 32 µg/mL (≈ 95.7 µM) | MIC50 (Streptococcus oralis [11]): 16 µg/mL (≈ 47.8 µM) | MIC90 (Streptococcus oralis [11]): 32 µg/mL (≈ 95.7 µM) | MIC50 (Streptococcus salivarius [12]): 16 µg/mL (≈ 47.8 µM) | MIC90 (Streptococcus salivarius [12]): 32 µg/mL (≈ 95.7 µM) | MIC50 (Streptococcus sanguinis [13]): 16 µg/mL (≈ 47.8 µM) | MIC90 (Streptococcus sanguinis [13]): 32 µg/mL (≈ 95.7 µM) | MIC50 (Haemophilus influenzae [14]): 0.5 µg/mL (≈ 1.5 µM) | MIC90 (Haemophilus influenzae [14]): > 4 µg/mL | MIC50 (Haemophilus influenzae [15]): 1 µg/mL (≈ 2.99 µM) | MIC90 (Haemophilus influenzae [15]): 2 µg/mL (≈ 5.98 µM) | MIC (Neisseria meningitidis [16]): ≤ 0.06 µg/mL | MIC50 (Neisseria meningitidis [16]): ≤ 0.06 µg/mL | MIC90 (Neisseria meningitidis [16]): 0.12 µg/mL (≈ 0.359 µM) | Activity (Listeria monocytogenes [17]): 100% | Activity (Streptococcus pneumoniae [18]): 100% | Activity (Streptococcus pneumoniae [19]): 100% | Activity (Streptococcus anginosus [20]): 53.2% | Activity (Streptococcus equinus [21]): 53.2% | Activity [22]: 53.2% | Activity [23]: 53.2% | Activity (Streptococcus mitis [24]): 53.2% | Activity (Streptococcus oralis [25]): 53.2% | Activity (Streptococcus salivarius [26]): 53.2% | Activity (Streptococcus sanguinis [27]): 53.2% | Activity (Haemophilus influenzae [28]): inactive | Activity (Haemophilus influenzae [29]): inactive | Activity (Neisseria meningitidis [30]): 50%
